According to PMC11451967 (2024):

Columns and labels:
Assay in all cases: fluorescence turn-on, 625 nm
[1] = tested on: NC (RNA, single strand) UUGUACUACACAAAAGUACUG; conditions: BPC1 1 μM, oligonucleotide 4 μM; no fluorescence increase
[2] = tested on: ssDNAmix (DNA, single strand) ATGCTCAGACTGTCAGAGTC; conditions: BPC1 1 μM, oligonucleotide 4 μM; weak fluorescence enhancement
[3] = tested on: dsDNAmix (DNA, duplex) CGATAAGCGCTTATCGAGTCGACTCGATAAGCGCTTATCG; conditions: BPC1 1 μM, oligonucleotide 4 μM; significant fluorescence enhancement
[4] = tested on: ssRNAmix (RNA, single strand) AUGUACCUAGUCUGACCUAG; conditions: BPC1 1 μM, oligonucleotide 4 μM; no fluorescence increase

binding [1]: no
binding [2]: weak
binding [3]: yes
binding [4]: no
SMILES: CC[n+]1c(/C=C/C=C2C=CN(c3ccccc3)C=C2)sc2ccccc21
